Reference: paper PMC11123841, “Discovery and Synthesis of Hydroxy-L-Proline Blockers of the Neutral Amino Acid Transporters SLC1A4 (ASCT1) and SLC1A5 (ASCT2)” (Molecules, 2024)

What was measured:
Assay type in all cases: cell-based
mSLC1A5 = molecular target: T1, mSLC1A5 (Mus musculus, UniProt P51912); assay: TEVC block of anion leak conductance in oocytes; details: SLC1A5; compared with ligands of refs 43, 65
T1 construct: expressed in transfected cells; host or cells: Xenopus laevis oocytes (cRNA injection)
T1 sequence (P51912 1-553): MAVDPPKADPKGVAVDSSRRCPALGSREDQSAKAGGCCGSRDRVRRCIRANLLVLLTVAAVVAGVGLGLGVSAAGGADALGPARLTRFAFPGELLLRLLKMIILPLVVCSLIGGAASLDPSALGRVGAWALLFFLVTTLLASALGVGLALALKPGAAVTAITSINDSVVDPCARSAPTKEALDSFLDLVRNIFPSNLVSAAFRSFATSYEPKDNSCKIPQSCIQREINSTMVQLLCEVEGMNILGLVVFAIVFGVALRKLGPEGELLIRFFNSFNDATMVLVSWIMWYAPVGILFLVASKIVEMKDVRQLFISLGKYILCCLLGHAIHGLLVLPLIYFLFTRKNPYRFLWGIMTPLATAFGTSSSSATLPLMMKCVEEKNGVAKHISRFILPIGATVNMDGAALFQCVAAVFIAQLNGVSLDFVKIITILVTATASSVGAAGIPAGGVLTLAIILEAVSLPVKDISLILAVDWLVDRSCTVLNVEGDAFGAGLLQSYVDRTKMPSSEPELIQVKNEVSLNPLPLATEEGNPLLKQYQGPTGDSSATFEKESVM
Text: The currents induced by substrates and blocked by hydroxyproline analogs shared a reversal potential shown in the current/voltage relationship consistent with the conductance originating from the same ion pore (Figure 3, inset). […] The observed dose–response relationships are independent of competing substrates, and thus provide a direct measure of the equilibrium inhibition constant (Ki). Each synthetic hydroxyproline analog was functionally assessed for its capacity to inhibit SLC1A4 and SLC1A5 leak currents with affinities reported in Table 1 as determined or approximated Ki.
(§1) Two-electrode voltage clamp (TEVC) transporter currents were recorded with a GeneClamp 500 amplifier and Digidata 1320A analog–digital interface (Molecular Devices, San Jose, CA, USA). Electrodes (0.2–1.0 MΩ) were filled with 3M KCl and the recording chamber was grounded with an agar bridge. Data were acquired with Axograph (v1.7.6) and LabChart (v7) and analyzed with Kaleidagraph software (v4.1) (Synergy, Reading, PA, USA). Uncoupled anion currents associated with the transport of substrate and block of SLC1A4 or SLC1A5 mediated leak conductance were recorded in the presence of Ringer with 50% substitution of NaCl by NaSCN to amplify the non-transported anion conductance.
Figure 3 AHPCs block a leak current in SLC1A4 and SLC1A5. […] Inset (A): The current and voltage relationship for SLC1A4 currents activated by Ala or blocked by 14b are determined by subtracting voltage jumps in buffer.

SLC1A4 = molecular target: T2, SLC1A4 (Homo sapiens, UniProt P43007); assay: Schild analysis of L-alanine dose responses
T2 construct: expressed in transfected cells; host or cells: Xenopus laevis oocytes (cRNA injection)
T2 sequence (P43007 1-532): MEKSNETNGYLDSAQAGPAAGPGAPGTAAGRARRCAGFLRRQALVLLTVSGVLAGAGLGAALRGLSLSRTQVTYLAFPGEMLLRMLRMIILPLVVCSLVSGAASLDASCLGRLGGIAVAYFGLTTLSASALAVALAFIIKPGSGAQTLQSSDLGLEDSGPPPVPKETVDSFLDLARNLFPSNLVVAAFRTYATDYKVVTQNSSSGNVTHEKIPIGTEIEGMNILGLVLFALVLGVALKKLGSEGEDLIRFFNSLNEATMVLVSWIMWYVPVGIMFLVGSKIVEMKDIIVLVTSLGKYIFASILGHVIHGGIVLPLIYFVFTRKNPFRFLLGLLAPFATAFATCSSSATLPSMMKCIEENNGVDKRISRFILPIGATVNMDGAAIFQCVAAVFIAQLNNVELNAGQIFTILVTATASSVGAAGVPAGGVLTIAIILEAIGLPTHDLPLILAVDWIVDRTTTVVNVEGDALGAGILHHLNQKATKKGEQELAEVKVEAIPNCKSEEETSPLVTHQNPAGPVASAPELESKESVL
Procedure: We further characterized the highest affinity blocker discovered from our AHPC series, biphenyl-O-hydroxy-proline (BPOHP, 14e). […] A respective right shift in the substrate dose response was apparent with increasing concentrations of BPOHP (Figure 4C).
as §1
Figure 4 BPOHP 14e characterization as a competitive, non-transportable inhibitor. […] (D) A Schild plot showing a linear relationship between [L-ala] dose ratio and four different concentrations of BPOHP, consistent with competitive inhibition.

[1] = molecular target: T3, SLC3A2 (4f2) injected alone (Homo sapiens, UniProt P08195); assay: [3H]D-serine uptake in oocytes; details: 10 µM BPOHP
T3 construct: expressed in transfected cells; host or cells: Xenopus laevis oocytes (cRNA injection)
T3 sequence (P08195 1-529): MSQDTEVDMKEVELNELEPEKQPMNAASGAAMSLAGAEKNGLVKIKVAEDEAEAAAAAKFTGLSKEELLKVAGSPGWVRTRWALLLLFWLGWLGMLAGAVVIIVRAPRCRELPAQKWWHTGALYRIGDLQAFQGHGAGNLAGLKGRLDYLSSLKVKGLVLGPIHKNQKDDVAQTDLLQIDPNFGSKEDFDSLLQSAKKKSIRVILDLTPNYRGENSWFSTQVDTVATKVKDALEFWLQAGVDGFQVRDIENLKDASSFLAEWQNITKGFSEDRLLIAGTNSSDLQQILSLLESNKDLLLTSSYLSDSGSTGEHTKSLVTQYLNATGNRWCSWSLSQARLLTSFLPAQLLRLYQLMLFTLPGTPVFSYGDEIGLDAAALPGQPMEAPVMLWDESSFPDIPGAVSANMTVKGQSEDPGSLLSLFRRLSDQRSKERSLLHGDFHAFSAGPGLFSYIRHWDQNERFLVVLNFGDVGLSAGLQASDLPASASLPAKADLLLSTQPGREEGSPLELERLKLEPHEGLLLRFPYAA
Procedure: Figure SM-3A. Representative traces showing 100µM L-Ala currents and co-application of 3µM BPOHP (black bar) with no effect on SLC38A neutral amino acid transporters SLC38A1(ATA1), SLC38A2 (ATA2), and SLC38A4 (ATA3). SM-3B. [3H]D-serine uptake (100nM) in SLC1A4 is blocked by BPOHP (10µM), however, [ 3H]D-serine uptake by co -expressed SLC7A10+SLC3A2 (asc1+4F2) nor SLC3A2 (4f2) expressed (injected) alone was blocked by application of 10µM BPOHP.
Figure SM-4. Tosic acid approach to compound 12c. (i) Tosylic acid 0.1M in THF 60◦C. (ii) Phenol and NaH in DCM, 40◦C under argon balloon (iii) 10% Pd/C (10% w/eq.), H2, MeOH, H2O, […]
S.Figure 3 A. Representative traces showing 100uM L-Ala currents and co-application of 3uM BPOHP (black bar) with no effect on SLC38A neutral amino acid transporters SLC38A1(ATA1), SLC38A2 (ATA2), and SLC38A4 (ATA3). B. [3H]D-serine uptake (100nM) in SLC1A4 is blocked by BPOHP (10uM), but not the H3D-serine uptake by […]

O=C(O)[C@H]1NC[C@@H](OCc2ccc(-c3ccccc3)cc2)[C@@H]1O [14e]
fold improvement in affinity over ligands previously reported (mSLC1A5): 7–25 fold
Kb (SLC1A4): 120 nM
effect on [3H]D-serine uptake [1]: no effect
